Measured values published in patent US20130164384A1, “METHODS OF TREATING BOWEL DISEASES BY ADMINISTERING A BOWEL CLEANSER AND AN ANTIBIOTIC” (Salix Pharmaceuticals, Ltd., priority 2008, published 2013).

System: subjects with dIBS
Test: Study of three rifaximin doses in subjects with dIBS: adequate relief of IBS symptoms and bloating
Format: in vivo, human
Conditions: for Treatment effect (Bloating) / Treatment effect (IBS Sx): matches RFX 550 2 w minus PBO success rate; for Adequate Relief of Bloating: Failure / Adequate Relief of Bloating: Success / Adequate Relief of IBS Symptoms: Failure / Adequate Relief of IBS Symptoms: Success: end of treatment phase
Description: This example relates to a study of three rifaximin doses in subjects with dIBS. Subjects were randomized to receive daily BID doses of rifaximin 275 mg, 550 mg, or 1100 mg for 14 days. A fifth group of subjects received rifaximin 550 mg BID for a period of 28 days. Subjects were questioned on the relief of overall IBS symptoms and bloating. […] The analyses defined success as a “yes” response to questions regarding adequate relief of SGA or IBS-B in at least 2 out of the final 3 weeks of the double-blind treatment period.
Baseline severity was determined using 7-point Lickert scales during screening for Abdominal Pain/Discomfort and Bloating, and the number, type (normal, hard, loose) and urgency of bowel movements.
Duration of effect was assessed in a 12 week follow-up period. Subjects that responded in the 4 week double-blind treatment period were followed for an additional 3 months. Fifty-three (53) subjects from the 550 mg 2 w and 59 subjects from the placebo-treated groups participated in this study phase.
Subjects recorded the following information on dIBS symptoms daily throughout the duration of the study: • Number of normal stools/day; • Number of hard and lumpy stools/day; • Number of loose or watery stools/day; • Number of loose or watery stools/day with the symptom of urgency; • How bothersome is abdominal pain and discomfort? [7-point response scale: 0 (not at all) to 6 (a very great deal)]; • How bothersome is bloating? [(7-point response scale: 0 (not at all) to 6 (a very great deal)].
Weekly summary variables were computed by averaging the recorded values over all pre-treatment days or over the seven days preceding the time point of interest for post-treatment assessments. For example, baseline included Days −10 to 0, Week 1 included Days 1 to 7, Week 2 included Days 8 to 14, and so forth through Week 16. Changes from baseline variables were computed for each weekly summary score.

[1] = 550 mg BID for 2 weeks, success = yes in at least 2 of final 3 weeks
[2] = GI Cleanser Prior to Rifaximin Administration: N
[3] = GI Cleanser Prior to Rifaximin Administration: Y
[4] = RFX 275 2 w (275 mg BID 14 days), Had a Screening Colonoscopy: No
[5] = RFX 275 2 w (275 mg BID 14 days), Had a Screening Colonoscopy: Yes
[6] = RFX 275 2 w (275 mg BID 14 days), Screening Colonoscopy <=26 Days
[7] = RFX 275 2 w (275 mg BID 14 days), Screening Colonoscopy >26 Days
[8] = RFX 275 2 w (275 mg BID 14 days), had screening colonoscopy, Average Abdominal Pain Discomfort Score at Baseline <=4
[9] = RFX 275 2 w (275 mg BID 14 days), had screening colonoscopy, Average Abdominal Pain Discomfort Score at Baseline >4
[10] = RFX 275 2 w (275 mg BID 14 days), had screening colonoscopy, Average Bloating Discomfort Score at Baseline <=4
[11] = RFX 275 2 w (275 mg BID 14 days), had screening colonoscopy, Average Bloating Discomfort Score at Baseline >4
[12] = RFX 550 2 w (550 mg BID 14 days), Had a Screening Colonoscopy: No
[13] = RFX 550 2 w (550 mg BID 14 days), Had a Screening Colonoscopy: Yes
[14] = RFX 550 2 w (550 mg BID 14 days), Screening Colonoscopy <=26 Days
[15] = RFX 550 2 w (550 mg BID 14 days), Screening Colonoscopy >26 Days
[16] = RFX 550 2 w (550 mg BID 14 days), had screening colonoscopy, Average Abdominal Pain Discomfort Score at Baseline <=4
[17] = RFX 550 2 w (550 mg BID 14 days), had screening colonoscopy, Average Abdominal Pain Discomfort Score at Baseline >4
[18] = RFX 550 2 w (550 mg BID 14 days), had screening colonoscopy, Average Bloating Discomfort Score at Baseline <=4

COC1/C=C/OC2(C)Oc3c(C)c(O)c4c(O)c(c5c(nc6cc(C)ccn65)c4c3C2=O)NC(=O)/C(C)=C\C=C\C(C)C(O)C(C)C(O)C(C)C(OC(C)=O)C1C [RFX, (2S,16Z,18E,20S,21S,22R,23R,24R,25S,26S,27S,28E)-5,6,21,23,25 Pentahydroxy-27-methoxy-2,4,11,16,20,22,24,26-octamethyl-2,7-(epoxypentadeca-(1,11,13)trienimino)benzofuro(4,5-e)pyrido(1,2,-a)benzimidazole-1,15(2H)-dione,25-acetate]
Duration of effect (maintaining symptom relief) versus placebo (550 mg BID 2 w responders, 12 week follow-up period): better chance of maintaining symptom relief
Adequate relief of IBS related symptoms (SGA) compared to placebo [1]: statistically significant relief
Adequate relief of IBS-related bloating (IBS-B) compared to placebo [1]: statistically significant relief
Treatment effect (Bloating) [2]: −0.9%
Treatment effect (IBS Sx) [2]: 4.7%
Treatment effect (Bloating) [3]: 13.8%
Treatment effect (IBS Sx) [3]: 11.6%
Adequate Relief of Bloating: Failure [4]: 36 (67.9%) n (%)
Adequate Relief of Bloating: Success [4]: 17 (32.1%) n (%)
Adequate Relief of IBS Symptoms: Failure [4]: 32 (60.4%) n (%)
Adequate Relief of IBS Symptoms: Success [4]: 21 (39.6%) n (%)
Adequate Relief of Bloating: Failure [5]: 24 (57.1%) n (%)
Adequate Relief of Bloating: Success [5]: 18 (42.9%) n (%)
Adequate Relief of IBS Symptoms: Failure [5]: 23 (54.8%) n (%)
Adequate Relief of IBS Symptoms: Success [5]: 19 (45.2%) n (%)
Adequate Relief of Bloating: Failure [6]: 10 (55.6%) n (%)
Adequate Relief of Bloating: Success [6]: 8 (44.4%) n (%)
Adequate Relief of IBS Symptoms: Failure [6]: 11 (61.1%) n (%)
Adequate Relief of IBS Symptoms: Success [6]: 7 (38.9%) n (%)
Adequate Relief of Bloating: Failure [7]: 14 (58.3%) n (%)
Adequate Relief of Bloating: Success [7]: 10 (41.7%) n (%)
Adequate Relief of IBS Symptoms: Failure [7]: 12 (50.0%) n (%)
Adequate Relief of IBS Symptoms: Success [7]: 12 (50.0%) n (%)
Adequate Relief of Bloating: Failure [8]: 22 (59.5%) n (%)
Adequate Relief of Bloating: Success [8]: 15 (40.5%) n (%)
Adequate Relief of IBS Symptoms: Failure [8]: 21 (56.8%) n (%)
Adequate Relief of IBS Symptoms: Success [8]: 16 (43.2%) n (%)
Adequate Relief of Bloating: Failure [9]: 2 (40.0%) n (%)
Adequate Relief of Bloating: Success [9]: 3 (60.0%) n (%)
Adequate Relief of IBS Symptoms: Failure [9]: 2 (40.0%) n (%)
Adequate Relief of IBS Symptoms: Success [9]: 3 (60.0%) n (%)
Adequate Relief of Bloating: Failure [10]: 22 (59.5%) n (%)
Adequate Relief of Bloating: Success [10]: 15 (40.5%) n (%)
Adequate Relief of IBS Symptoms: Failure [10]: 21 (56.8%) n (%)
Adequate Relief of IBS Symptoms: Success [10]: 16 (43.2%) n (%)
Adequate Relief of Bloating: Failure [11]: 2 (40.0%) n (%)
Adequate Relief of Bloating: Success [11]: 3 (60.0%) n (%)
Adequate Relief of IBS Symptoms: Failure [11]: 2 (40.0%) n (%)
Adequate Relief of IBS Symptoms: Success [11]: 3 (60.0%) n (%)
Adequate Relief of Bloating: Failure [12]: 59 (62.1%) n (%)
Adequate Relief of Bloating: Success [12]: 36 (37.9%) n (%)
Adequate Relief of IBS Symptoms: Failure [12]: 49 (51.6%) n (%)
Adequate Relief of IBS Symptoms: Success [12]: 46 (48.4%) n (%)
Adequate Relief of Bloating: Failure [13]: 44 (45.8%) n (%)
Adequate Relief of Bloating: Success [13]: 52 (54.2%) n (%)
Adequate Relief of IBS Symptoms: Failure [13]: 42 (43.8%) n (%)
Adequate Relief of IBS Symptoms: Success [13]: 54 (56.3%) n (%)
Adequate Relief of Bloating: Failure [14]: 18 (40.9%) n (%)
Adequate Relief of Bloating: Success [14]: 26 (59.1%) n (%)
Adequate Relief of IBS Symptoms: Failure [14]: 20 (45.5%) n (%)
Adequate Relief of IBS Symptoms: Success [14]: 24 (54.5%) n (%)
Adequate Relief of Bloating: Failure [15]: 26 (50.0%) n (%)
Adequate Relief of Bloating: Success [15]: 26 (50.0%) n (%)
Adequate Relief of IBS Symptoms: Failure [15]: 22 (42.3%) n (%)
Adequate Relief of IBS Symptoms: Success [15]: 30 (57.7%) n (%)
Adequate Relief of Bloating: Failure [16]: 38 (45.8%) n (%)
Adequate Relief of Bloating: Success [16]: 45 (54.2%) n (%)
Adequate Relief of IBS Symptoms: Failure [16]: 37 (44.6%) n (%)
Adequate Relief of IBS Symptoms: Success [16]: 46 (55.4%) n (%)
Adequate Relief of Bloating: Failure [17]: 6 (46.2%) n (%)
Adequate Relief of Bloating: Success [17]: 7 (53.8%) n (%)
Adequate Relief of IBS Symptoms: Failure [17]: 5 (38.5%) n (%)
Adequate Relief of IBS Symptoms: Success [17]: 8 (61.5%) n (%)
Adequate Relief of Bloating: Failure [18]: 36 (45.0%) n (%)
Adequate Relief of Bloating: Success [18]: 44 (55.0%) n (%)
Adequate Relief of IBS Symptoms: Failure [18]: 34 (42.5%) n (%)
Adequate Relief of IBS Symptoms: Success [18]: 46 (57.5%) n (%)
Adequate Relief of Bloating: Failure (RFX 550 2 w (550 mg BID 14 days), had screening colonoscopy, Average Bloating Discomfort Score at Baseline >4): 8 (50.0%) n (%)
